Test results: ChEMBL document CHEMBL1201862, “PubChem BioAssay data set” (2004)
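Method: 48-hour compound exposure of cells in 96-well plates, five concentrations, linear interpolation of endpoints. The concentration for 50% growth inhibition is given as GI50.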 Calls of active or inactive are those of the source. Cut-off read from the data, not from the text of the source: active = GI50 up to about 1.1 µM and inactive = higher.

Key:
Assay in all cases: NCI-60 cell line screen, 48 h
SK-MEL-28 = system: SK-MEL-28
CCRF-CEM = system: CCRF-CEM
786-0 = system: 786-0
SF-295 = system: SF-295
HT-29 = system: HT-29
TK-10 = system: TK-10
OVCAR-4 = system: OVCAR-4
OVCAR-8 = system: OVCAR-8
SK-OV-3 = system: SK-OV-3
U-251 = system: U-251
SK-MEL-2 = system: SK-MEL-2
LOX IMVI = system: LOX IMVI
Malme-3M = system: Malme-3M
NCI-H460 = system: NCI-H460
M14 = system: M14
NCI-H23 = system: NCI-H23
HCT-116 = system: HCT-116

In the case of `C=CCNC(=O)NCCCCC(NC(C)=O)C(=O)NCc1ccccc1` (configuration not stated), the GI50 (SK-MEL-28) was > 100 µM (inactive), the GI50 (CCRF-CEM) was > 100 µM (inactive) and the GI50 (786-0) was > 100 µM (inactive). The GI50 (SF-295) was > 100 µM (inactive), the GI50 (HT-29) was > 100 µM (inactive) and the GI50 (TK-10) was > 100 µM (inactive). For the same compound, the GI50 (OVCAR-4) was > 100 µM (inactive), the GI50 (OVCAR-8) was > 100 µM (inactive) and the GI50 (SK-OV-3) was > 100 µM (inactive). The GI50 (U-251) was > 100 µM (inactive), the GI50 (SK-MEL-2) was > 100 µM (inactive) and the GI50 (LOX IMVI) was > 100 µM (inactive). The GI50 (Malme-3M) was > 100 µM (inactive), the GI50 (NCI-H460) was > 100 µM (inactive) and the GI50 (M14) was > 100 µM (inactive). The GI50 (NCI-H23) was > 100 µM (inactive).
For `COc1ccc2c(c1)Oc1cc(O)ccc1[C@@H]2c1ccccc1C(=O)NC(C)c1ccccc1` (some centres not stated), the GI50 (SK-MEL-28) was 15.4 µM (inactive), the GI50 (CCRF-CEM) was 15.8 µM (inactive) and the GI50 (786-0) was 13.7 µM (inactive). The GI50 (SF-295) was 13 µM (inactive), the GI50 (HT-29) was 15.3 µM (inactive) and the GI50 (TK-10) was 23.7 µM (inactive). The GI50 (OVCAR-8) was 17.6 µM (inactive), the GI50 (SK-OV-3) was 23.1 µM (inactive) and the GI50 (U-251) was 15 µM (inactive). For the same compound, the GI50 (SK-MEL-2) was 18.7 µM (inactive), the GI50 (LOX IMVI) was 15.9 µM (inactive) and the GI50 (HCT-116) was 12.2 µM (inactive). For the same compound, the GI50 (Malme-3M) was 15 µM (inactive), the GI50 (NCI-H460) was 12.2 µM (inactive) and the GI50 (M14) was 12.2 µM (inactive). For the same compound, the GI50 (NCI-H23) was 16.1 µM (inactive).
In the case of `Cc1ccc(C(=O)NCCN(C)C)c2nc3ccccc3cc12`, the GI50 (SK-MEL-28) was 1.95 µM (inactive), the GI50 (CCRF-CEM) was 1.54 µM (inactive) and the GI50 (786-0) was 2.32 µM (inactive). For the same compound, the GI50 (SF-295) was 1.07 µM (active), the GI50 (HT-29) was 0.462 µM (active) and the GI50 (TK-10) was 1.54 µM (inactive). For the same compound, the GI50 (OVCAR-4) was 3.74 µM (inactive), the GI50 (OVCAR-8) was 0.622 µM (active) and the GI50 (SK-OV-3) was 30.3 µM (inactive). The GI50 (U-251) was 0.644 µM (active), the GI50 (SK-MEL-2) was 2.53 µM (inactive) and the GI50 (LOX IMVI) was 0.561 µM (active). For the same compound, the GI50 (HCT-116) was 0.468 µM (active), the GI50 (Malme-3M) was 2.54 µM (inactive) and the GI50 (NCI-H460) was 0.34 µM (active). For the same compound, the GI50 (M14) was 2.69 µM (inactive).
With `O=C(O)CNS(=O)(=O)c1ccc(NC(=O)CI)cc1` the GI50 (SK-MEL-28) was 24.4 µM (inactive), the GI50 (CCRF-CEM) was 2.33 µM (inactive) and the GI50 (786-0) was 14.9 µM (inactive). For the same compound, the GI50 (SF-295) was 26.3 µM (inactive), the GI50 (HT-29) was 21.2 µM (inactive) and the GI50 (TK-10) was 63 µM (inactive). The GI50 (OVCAR-4) was 18 µM (inactive), the GI50 (OVCAR-8) was 21.1 µM (inactive) and the GI50 (SK-OV-3) was 33.8 µM (inactive). The GI50 (U-251) was 19.1 µM (inactive), the GI50 (SK-MEL-2) was 23.3 µM (inactive) and the GI50 (LOX IMVI) was 19 µM (inactive). For the same compound, the GI50 (Malme-3M) was 18.8 µM (inactive), the GI50 (NCI-H460) was 25.7 µM (inactive) and the GI50 (M14) was 18.6 µM (inactive). For the same compound, the GI50 (NCI-H23) was 18.3 µM (inactive).
With `COC(=O)C1=C(C[S+]([O-])c2ccc([N+](=O)[O-])cc2[N+](=O)[O-])C2C=CC1C2` (configuration not stated) the GI50 (CCRF-CEM) was 11.8 µM (inactive), the GI50 (786-0) was 27.1 µM (inactive) and the GI50 (SF-295) was 65 µM (inactive). The GI50 (HT-29) was 17.7 µM (inactive), the GI50 (TK-10) was 23.4 µM (inactive) and the GI50 (OVCAR-4) was 25.7 µM (inactive). The GI50 (OVCAR-8) was 30.5 µM (inactive), the GI50 (SK-OV-3) was 38.3 µM (inactive) and the GI50 (U-251) was 20 µM (inactive). For the same compound, the GI50 (SK-MEL-2) was 41.4 µM (inactive), the GI50 (LOX IMVI) was 13.5 µM (inactive) and the GI50 (HCT-116) was 21.8 µM (inactive). For the same compound, the GI50 (Malme-3M) was 21.4 µM (inactive), the GI50 (NCI-H460) was 35.9 µM (inactive) and the GI50 (M14) was 42.6 µM (inactive). The GI50 (NCI-H23) was 26.4 µM (inactive).
In the case of `CC(=O)NC1=C(Nc2ccc(C)cc2)C(=O)c2ccccc2C1=O`, the GI50 (SK-MEL-28) was 17.6 µM (inactive), the GI50 (CCRF-CEM) was 17.1 µM (inactive) and the GI50 (786-0) was 15.4 µM (inactive). The GI50 (SF-295) was 18.2 µM (inactive), the GI50 (HT-29) was 15.2 µM (inactive) and the GI50 (TK-10) was > 75 µM (inactive). The GI50 (OVCAR-4) was 17.7 µM (inactive), the GI50 (OVCAR-8) was 25 µM (inactive) and the GI50 (SK-OV-3) was > 75 µM (inactive). For the same compound, the GI50 (U-251) was 29 µM (inactive), the GI50 (SK-MEL-2) was 21.6 µM (inactive) and the GI50 (LOX IMVI) was 9.53 µM (inactive). The GI50 (HCT-116) was 19.9 µM (inactive), the GI50 (Malme-3M) was 11.5 µM (inactive) and the GI50 (NCI-H460) was 12.1 µM (inactive). For the same compound, the GI50 (M14) was 13.5 µM (inactive) and the GI50 (NCI-H23) was 8.02 µM (inactive).
For `COC(=O)[C@@]12C3=NO[C@]1(C(=O)OC)C(O[Si](C)(C)C(C)(C)C)C1OC(C)(C)OC1[C@@H]2[C@@H](OCc1ccccc1)CC3` (some centres not stated), the GI50 (SK-MEL-28) was > 100 µM (inactive), the GI50 (CCRF-CEM) was > 100 µM (inactive) and the GI50 (786-0) was > 100 µM (inactive). For the same compound, the GI50 (SF-295) was > 100 µM (inactive), the GI50 (HT-29) was 33 µM (inactive) and the GI50 (TK-10) was > 100 µM (inactive). For the same compound, the GI50 (OVCAR-4) was 23.9 µM (inactive), the GI50 (OVCAR-8) was > 100 µM (inactive) and the GI50 (SK-OV-3) was > 100 µM (inactive). The GI50 (U-251) was > 100 µM (inactive), the GI50 (SK-MEL-2) was > 100 µM (inactive) and the GI50 (LOX IMVI) was 83.9 µM (inactive). The GI50 (HCT-116) was 8.2 µM (inactive), the GI50 (M14) was 43.9 µM (inactive) and the GI50 (NCI-H23) was 58.7 µM (inactive).
